Results on four molecules are retold here after ChEMBL document CHEMBL5465560, “Selectivity Literature for EUbOPEN Chemogenomic Library” (2024).

Test [1] concerns the target T1, Phosphatidylinositol 4,5-bisphosphate 3-kinase catalytic subunit delta isoform (Homo sapiens) (UniProt O00329).
T1 sequence (whole entry): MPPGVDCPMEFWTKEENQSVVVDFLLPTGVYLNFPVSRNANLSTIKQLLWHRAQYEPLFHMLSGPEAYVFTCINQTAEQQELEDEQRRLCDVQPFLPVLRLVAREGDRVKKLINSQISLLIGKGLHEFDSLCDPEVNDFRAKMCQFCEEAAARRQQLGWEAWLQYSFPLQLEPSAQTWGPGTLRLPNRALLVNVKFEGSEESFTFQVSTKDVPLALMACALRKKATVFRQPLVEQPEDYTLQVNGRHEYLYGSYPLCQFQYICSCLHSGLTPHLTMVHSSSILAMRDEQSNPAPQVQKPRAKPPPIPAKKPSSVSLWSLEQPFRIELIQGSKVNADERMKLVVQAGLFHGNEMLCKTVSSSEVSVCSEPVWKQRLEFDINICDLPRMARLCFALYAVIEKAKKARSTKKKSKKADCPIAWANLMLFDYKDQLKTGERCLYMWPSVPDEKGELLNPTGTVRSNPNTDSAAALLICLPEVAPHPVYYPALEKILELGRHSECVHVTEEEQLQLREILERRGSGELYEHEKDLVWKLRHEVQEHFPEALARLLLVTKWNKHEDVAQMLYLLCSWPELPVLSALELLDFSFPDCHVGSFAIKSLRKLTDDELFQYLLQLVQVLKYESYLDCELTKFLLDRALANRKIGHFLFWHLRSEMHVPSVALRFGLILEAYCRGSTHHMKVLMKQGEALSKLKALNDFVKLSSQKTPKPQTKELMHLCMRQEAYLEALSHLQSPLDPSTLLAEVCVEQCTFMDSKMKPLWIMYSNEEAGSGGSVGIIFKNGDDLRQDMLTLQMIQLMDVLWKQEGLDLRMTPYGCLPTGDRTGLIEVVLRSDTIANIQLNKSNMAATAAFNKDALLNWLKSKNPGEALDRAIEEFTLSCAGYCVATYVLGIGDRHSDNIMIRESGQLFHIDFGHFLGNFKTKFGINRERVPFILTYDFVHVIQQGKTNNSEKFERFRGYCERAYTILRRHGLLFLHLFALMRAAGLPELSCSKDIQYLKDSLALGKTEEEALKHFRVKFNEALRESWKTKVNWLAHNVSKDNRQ
In words: Selectivity interaction (Kinase panel (KiNativ target engagement assay in Jurkat cells)) EUB0001635a PIK3CD. The test is classed as cell-based. Particulars: Selectivity number of off-targets 0.0, Selectivity number of targets 233.0, Source Knowledge https://www.sciencedirect.com/science/article/pii/S2451945619300674?via%3Dihub, at 1 µM.

The target of test [2] is Cyclin-dependent kinase 3 (Homo sapiens) (UniProt Q00526). Nature of the test: Selectivity interaction (KinomeScan (DiscoverX)) EUB0000666a CDK3. The following applies: at 10 µM.
Chain of Cyclin-dependent kinase 3 (Homo sapiens) (Q00526 whole entry, looked up): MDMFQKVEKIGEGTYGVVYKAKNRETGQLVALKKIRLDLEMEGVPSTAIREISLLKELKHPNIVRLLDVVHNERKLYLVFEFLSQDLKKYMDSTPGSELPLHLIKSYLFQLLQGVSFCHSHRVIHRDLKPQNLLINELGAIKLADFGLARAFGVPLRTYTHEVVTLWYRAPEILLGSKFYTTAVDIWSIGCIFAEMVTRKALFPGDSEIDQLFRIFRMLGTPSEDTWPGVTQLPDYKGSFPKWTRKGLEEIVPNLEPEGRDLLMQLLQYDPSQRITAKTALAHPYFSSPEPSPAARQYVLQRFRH
In test [3] the target is T2, Mitogen-activated protein kinase kinase kinase 3 (Homo sapiens) (UniProt Q99759).
T2 sequence (whole entry): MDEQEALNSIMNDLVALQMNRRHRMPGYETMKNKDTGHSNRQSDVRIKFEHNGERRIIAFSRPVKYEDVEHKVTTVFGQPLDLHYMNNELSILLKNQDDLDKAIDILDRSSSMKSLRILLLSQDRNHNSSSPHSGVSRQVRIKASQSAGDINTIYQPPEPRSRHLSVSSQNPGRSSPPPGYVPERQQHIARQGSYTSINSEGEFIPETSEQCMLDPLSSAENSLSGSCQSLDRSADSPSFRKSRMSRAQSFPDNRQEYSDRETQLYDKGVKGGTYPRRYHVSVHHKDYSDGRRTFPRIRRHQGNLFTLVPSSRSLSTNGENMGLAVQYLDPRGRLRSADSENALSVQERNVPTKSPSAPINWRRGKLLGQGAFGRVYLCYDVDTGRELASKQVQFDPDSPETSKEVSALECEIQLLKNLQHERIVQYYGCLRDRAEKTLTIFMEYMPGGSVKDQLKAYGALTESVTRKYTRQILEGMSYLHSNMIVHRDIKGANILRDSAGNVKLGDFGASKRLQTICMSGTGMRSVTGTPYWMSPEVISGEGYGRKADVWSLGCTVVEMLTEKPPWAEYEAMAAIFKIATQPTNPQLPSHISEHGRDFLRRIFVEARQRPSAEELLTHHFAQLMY
In words: Selectivity interaction (ActivX KiNativ screen (ex vivo kinase selectivity in human PBMCs)) EUB0001619a MAP3K3. The test is classed as cell-based. The following applies: PBMC, at 1 µM.

Test [4] addresses Serine/threonine-protein kinase PRP4 homolog (Homo sapiens) (UniProt Q13523). Nature of the test: Selectivity interaction (ActivX KiNativ screen (kinase selectivity in THP-1 cell lysates)) EUB0000639a PRPF4. The test is classed as subcellular. The following applies: lysate, at 0.2 µM.
Test [5] deals with T3, MAP/microtubule affinity-regulating kinase 4 (Homo sapiens) (UniProt Q96L34).
T3 sequence (whole entry): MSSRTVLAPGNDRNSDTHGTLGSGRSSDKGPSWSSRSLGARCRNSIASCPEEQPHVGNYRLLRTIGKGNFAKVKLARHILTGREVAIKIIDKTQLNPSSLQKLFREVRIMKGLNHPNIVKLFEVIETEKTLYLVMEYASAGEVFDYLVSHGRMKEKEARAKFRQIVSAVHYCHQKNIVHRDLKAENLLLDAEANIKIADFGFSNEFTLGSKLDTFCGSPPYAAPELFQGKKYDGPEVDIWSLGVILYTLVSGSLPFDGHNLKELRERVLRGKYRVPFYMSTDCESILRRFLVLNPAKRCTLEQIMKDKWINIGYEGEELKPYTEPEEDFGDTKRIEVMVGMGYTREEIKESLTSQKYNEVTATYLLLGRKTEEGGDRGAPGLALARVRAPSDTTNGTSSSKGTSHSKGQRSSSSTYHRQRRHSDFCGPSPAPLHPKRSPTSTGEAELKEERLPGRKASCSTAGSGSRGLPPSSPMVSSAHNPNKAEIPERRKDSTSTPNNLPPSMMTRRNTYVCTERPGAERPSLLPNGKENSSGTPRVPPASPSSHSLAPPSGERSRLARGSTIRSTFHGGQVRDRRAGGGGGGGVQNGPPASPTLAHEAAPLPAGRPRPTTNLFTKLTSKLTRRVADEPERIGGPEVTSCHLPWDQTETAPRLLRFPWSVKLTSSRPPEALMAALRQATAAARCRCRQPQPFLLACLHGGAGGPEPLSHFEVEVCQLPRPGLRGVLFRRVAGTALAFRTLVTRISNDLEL
In words: Selectivity interaction (ActivX KiNativ screen (kinase selectivity in THP-1 cell lysates)) EUB0000639a MARK4. The class given is subcellular. The following applies: lysate, at 5 µM.

Chain of Serine/threonine-protein kinase PRP4 homolog (Homo sapiens) (Q13523 whole entry): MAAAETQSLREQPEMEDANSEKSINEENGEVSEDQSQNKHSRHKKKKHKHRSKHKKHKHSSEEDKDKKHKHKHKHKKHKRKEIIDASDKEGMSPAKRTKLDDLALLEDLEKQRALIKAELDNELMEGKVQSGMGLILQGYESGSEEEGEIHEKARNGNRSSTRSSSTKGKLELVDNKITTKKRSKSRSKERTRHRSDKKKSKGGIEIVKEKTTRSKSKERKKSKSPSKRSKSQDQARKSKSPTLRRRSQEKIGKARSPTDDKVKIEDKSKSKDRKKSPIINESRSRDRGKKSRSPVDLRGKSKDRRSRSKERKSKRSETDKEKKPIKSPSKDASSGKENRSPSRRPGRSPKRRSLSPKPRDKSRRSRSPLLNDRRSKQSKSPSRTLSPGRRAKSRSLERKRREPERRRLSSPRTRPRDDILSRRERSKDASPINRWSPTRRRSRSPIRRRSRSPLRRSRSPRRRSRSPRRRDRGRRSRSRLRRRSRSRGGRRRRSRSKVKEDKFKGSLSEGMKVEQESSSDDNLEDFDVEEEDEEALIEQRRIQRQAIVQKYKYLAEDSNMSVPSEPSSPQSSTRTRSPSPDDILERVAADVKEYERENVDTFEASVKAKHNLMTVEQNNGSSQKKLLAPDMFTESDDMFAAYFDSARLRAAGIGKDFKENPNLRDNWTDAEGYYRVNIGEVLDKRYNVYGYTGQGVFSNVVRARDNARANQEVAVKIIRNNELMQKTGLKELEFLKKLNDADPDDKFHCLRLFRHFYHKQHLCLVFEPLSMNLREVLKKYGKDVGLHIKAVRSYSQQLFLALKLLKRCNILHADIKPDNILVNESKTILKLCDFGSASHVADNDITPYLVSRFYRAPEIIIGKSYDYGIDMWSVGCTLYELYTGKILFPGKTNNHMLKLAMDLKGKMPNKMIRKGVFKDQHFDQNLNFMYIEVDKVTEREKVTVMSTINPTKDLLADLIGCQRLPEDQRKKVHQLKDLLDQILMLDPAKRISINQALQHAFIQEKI

In the case of `C=CC(=O)Nc1ccc(C(=O)Nc2[nH]nc3c2CN(C(=O)N[C@H](CN(C)C)c2ccccc2)C3(C)C)cc1`, in test [1], the % of engagement was -6.8%.
As for `O=C(NOC[C@H](O)CO)c1ccc(F)c(F)c1Nc1ccc(I)cc1F`, the % of control in test [2] is 69%.
`N#Cc1cccc(-c2c[nH]c3ncnc(N4CCOCC4)c23)c1` registered a % of inhibition in test [3] of 7%.
Consider `CC[C@@H]1[C@H](F)C(=O)N[C@@H]1COc1nccc2cc(C(N)=O)c(OC)cc12` [ZIMLOVISERTIB], for which the % of inhibition stood at 21.9% in test [4] and 27.1% in test [5].
